Source: ChEMBL document CHEMBL1201862, “PubChem BioAssay data set” (2004)
The source made the active and inactive calls. No stated cut-off is given here; in the data, actives have a measured IC50 and inactives only a lower limit.

Molecular target: Envelope glycoprotein gp160 (Human immunodeficiency virus 1, UniProt Q6QLK5)
Experiment: cell-free HIV fusion peptide-binding blockers – biochemical, uHTS, fluorescence dequenching, […] (AID 1986)

Chain of Envelope glycoprotein gp160 (Q6QLK5 whole entry, the tested form may be a part): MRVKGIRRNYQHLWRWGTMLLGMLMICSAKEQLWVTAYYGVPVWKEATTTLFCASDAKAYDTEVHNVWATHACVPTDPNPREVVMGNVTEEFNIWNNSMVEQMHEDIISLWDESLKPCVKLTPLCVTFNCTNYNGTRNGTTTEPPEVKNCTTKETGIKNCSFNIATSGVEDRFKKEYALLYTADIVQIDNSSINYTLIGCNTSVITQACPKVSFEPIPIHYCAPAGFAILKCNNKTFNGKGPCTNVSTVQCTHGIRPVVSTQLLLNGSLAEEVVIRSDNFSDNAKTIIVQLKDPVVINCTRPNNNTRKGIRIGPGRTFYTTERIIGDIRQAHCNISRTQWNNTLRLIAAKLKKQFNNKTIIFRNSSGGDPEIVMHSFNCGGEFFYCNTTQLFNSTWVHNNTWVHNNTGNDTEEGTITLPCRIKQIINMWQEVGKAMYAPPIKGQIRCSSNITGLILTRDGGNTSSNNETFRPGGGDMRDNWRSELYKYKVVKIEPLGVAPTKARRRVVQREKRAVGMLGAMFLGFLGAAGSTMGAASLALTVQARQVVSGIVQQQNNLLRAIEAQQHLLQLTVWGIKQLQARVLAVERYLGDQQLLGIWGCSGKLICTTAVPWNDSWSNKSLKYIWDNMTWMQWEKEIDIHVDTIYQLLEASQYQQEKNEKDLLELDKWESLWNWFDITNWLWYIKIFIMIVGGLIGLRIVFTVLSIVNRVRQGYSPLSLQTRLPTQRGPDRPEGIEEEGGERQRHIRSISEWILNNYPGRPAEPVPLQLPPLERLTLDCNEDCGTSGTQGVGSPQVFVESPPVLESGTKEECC

Row | Structure (SMILES) | IC50
1 | CCCCCCCCCCCCCCCC[n+]1ccn(CC(C)=O)c1 | 14.4 µM (active)
2 | Cc1ccccc1NC1=NC(=O)/C(=C/c2cccn2-c2cccc(C(=O)O)c2)S1 | 11.3 µM (active)
3 | O=C(Nc1ccc(-c2nc3ccccc3[nH]2)cc1)c1ccccc1NS(=O)(=O)c1ccc(F)cc1 | 24.6 µM (active)
